According to patent US12428405B2, “Chalcone-based chemotherapeutic compound for triple negative breast cancer” (QATAR UNIVERSITY, priority 2019, dated 2025):
“And” between values parts separate entries of the source, which are not always exact repeats. Equal values may be shown once. “Also recorded” adds a separate entry of the source. Read-outs that look alike come from different tables or passages of the source.

How the values were obtained:
MDA-MB-231 [1] = assay: Cell cycle analysis (flow cytometry); format: cell-based; settings: 48 hours
Method: (§1) The MDA-MB-231, MDA-MB-468 and MCF-7 cell lines were seeded on 6-well plates at a concentration of 200,000 cells per well and were maintained in culture supplemented with 10% fetal bovine serum for 8-10 hours. The same day, media was removed and cells were incubated overnight with serum free media. Second day, cells were treated with the compounds. Adherent and floating cell populations were harvested at 48 hours after treatment with different concentrations of the compounds and counted.
(§2) Afterward, cells were washed with cold PBS once, centrifuged at 4° C. and fixed with 1.5 ml cold 70% ethanol added drop wise while slowly vortexing. Samples were then stored at […] Following fixation, cells were pelleted and washed with ice-cold PBS. Equal aliquots were collected and resuspended in 300 μl of Tali® Cell Cycle Kit and incubated at 37 C. with slow shaking speed for 30 minutes in the dark. Accuri C6 flow cytometer (BD Biosciences, USA) was used to analyze the cells. The FlowJo V10 software was used to process and evaluate the results.

MDA-MB-468 = assay: Cell cycle analysis (flow cytometry); format: cell-based; settings: 48 hours
Method: as §1, §2

HNME-E6/E7 = assay: MTT cell viability on immortalized normal mammary epithelial cells; format: cell-based, human; settings: normal cell line; 48 hours of treatment; Mean ± SEM (n = 3 × 3)
Text: (§3) Breast cancer cell lines including MDA-MB-231, MDA-MB-468, MCF-7, BT-474 and SK-BR-3 were obtained from the American Type Tissue Culture (ATCC) and maintained in complete cell culture media Gibco® RPMI 1640 (Thermo Fisher Scientific, USA) supplemented with 10% fetal bovine serum (PAN-Biotech, Aidenbach, Bavaria, Germany) and 1% penicillin/streptomycin (1×) antibiotics (Thermo Fisher Scientific, USA). Human normal mammary epithelial cells immortalized by E6/E7 of HPV type 16 (HNME-E6/E7) were used to predict potential safety of the compounds (125, 126). They were maintained in Gibco® Keratinocyte-SFM (1×) media. All cells were incubated in 5% CO2 at 37° C. incubator. Cells were maintained by routine sub-culturing in T-75 and T25 filtered tissue culture flasks.
MDA-MB-231, MDA-MB-468, MCF-7, BT-474 and HNME-E6/E7 cells were seeded overnight in 96-well plates at a concentration of 8000-10,000/well depending on their pre-calculated cell density and were incubated overnight. At 24 hours, media was replaced with fresh one. The treatment wells included 6-8 different concentrations of the compounds ranging between 0.25 μM-160 μM. […] Absorbance was recorded at a wavelength of 562 nm after 3 minutes of shaking using Infinite 200 PRO Microplate Reader (Tecan, Switzerland). Percentage of viable cells was calculated using the following formula: […]

MDA-MB-231 [2] = assay: Migration (wound healing) assay; format: cell-based; settings: for IC50: 24 hours of treatment, 5 concentrations, two independent experiments, read-out: Migratory IC50 MDA-MB-231; for activity at 5 µM: 24 hours post treatment, control = 100, Mean ± SEM (N = 2 × 2), read-out: % migration
Method: MDA-MB-231 cells were seeded in 12-wells plates at a concentration of 500,000 cells/well and were incubated in complete RPMI culture medium until covering the well and reaching around 90-100% confluency. Following, cells were serum starved for 4 hours and a 200 μl pipette tip was used to create the scratch followed by cell washing with PBS twice. […] Microscopic pictures were then taken, and cell migration was quantified based on the wound diameter at 24 hours minus the initial diameter at time zero, as represented by the following equation: % Migration=[…]

MDA-MB-231 [3] = assay: Soft agar colony formation assay; format: cell-based; settings: for less colonies as compared to untreated: 5 and 10 μM, 21 days post treatment; for colony formation (in words): MDA-MB-231, soft agar
EMT markers on MCF-7 = assay: Western blot of EMT markers; format: cell-based; settings: 5 and 10 μM
Method: (§4) Proteins were quantified with the Pierce BCA Protein Assay Kit (Thermo Scientific, USA) following cell lysis. SDS-PAGE was prepared at a concentration of 10% for all studied proteins. All samples were loaded at 40 μg per 1.5 mm 15 wells comb. Running of stained samples was performed using two steps gel electrophoresis (60 Volts for 20 minutes followed by 120 Volts for 1 hour). Afterwards, gels were transferred into PVDF membrane at 100 Voltage for 1.5-2.0 hours using wet transfer. Following transfer, PVDF membranes were blocked with 5% skimmed milk and washed three times. Primary antibodies (Table 2.2) were prepared, then PVDF membrane were incubated with them overnight with gentle shaking at 4° C. Afterwards, membranes were washed three times and incubated with their respective secondary antibodies for 1-2 hours with gentle shaking at room temperature. Pierce™ ECL Western Blotting Substrate was used to detect proteins by chemiluminescence. Blots were imaged using the ibrightCL1000 imaging system.

[4] = system: Epithelial Mesenchymal Transition (EMT) markers in MDA-MB-231 cells; assay: Western blot of EMT markers; format: cell-based
Method: as §4

[5] = system: MDA-MB-231 xenografted nude mice; assay: In vivo tumor growth, xenograft model
[6] = Two-week safety and tolerability of the dose before inoculation; settings: 10 mg/kg intraperitoneally for two weeks; n=5
BT-474 = assay: MTT cell viability; format: cell-based
Text: as §3
MDA-MB-231, MDA-MB-468, MCF-7, BT-474 and HNME-E6/E7 cells were seeded overnight in 96-well plates at a concentration of 8000-10,000/well depending on their pre-calculated cell density and were incubated overnight. At 24 hours, media was replaced with fresh one. The treatment wells included 6-8 different concentrations of the compounds ranging between 0.25 μM-160 μM. At 48 hours post treatment, 10 μL MTT solution was added to each well followed by 4 hours of incubation. Afterwards, media with MTT was removed from all wells and 50 μl DMSO was added to each well to dissolve the crystals. This was followed by 5 minutes incubation. Absorbance was recorded at a wavelength of 562 nm after 3 minutes of shaking using Infinite 200 PRO Microplate Reader (Tecan, Switzerland). Percentage of viable cells was calculated using the following formula: […]

MCF-7 = assay: Radius cell migration assay; format: cell-based; settings: Homo sapiens, MCF7; 24 hours of treatment; 5 concentrations; three independent experiments; read-out: Migratory IC50 MCF-7
Method: (§5) For MCF-7 and SK-BR-3 cell lines, migration testing was performed using the Radius™ Cell Migration Assay Kit (Cell Biolabs, Inc., USA) and migration was quantified based on the change in wound area.

SK-BR-3 = assay: Radius cell migration assay; format: cell-based; settings: Homo sapiens, 24 hours of treatment, 5 concentrations, three independent experiments, read-out: Migratory IC50 SK-BR-3
Method: as §5

[7] = 10 mg/kg i.p., three times per week, 45 days

CS(=O)(=O)c1ccc(C(=O)/C=C/c2ccc(N(CCCl)CCCl)cc2)cc1 [Compound 13, (E)-3-(4-(Bis(2-chloroethyl)amino)phenyl)-1-(4-(methylsulfonyl)phenyl) prop-2-en-1-one]
cell cycle arrest at the S phase (cells percentage) (MDA-MB-231 [1]; 10 μM of compound 13): 28.7±1.87% | cell cycle arrest at the S phase (cells percentage) (MDA-MB-468; 10 μM of compound 13): 46.8±5.39% | LD50 HNME-E6/E7 (HNME-E6/E7): 32.32 ± 3.93 µM | IC50 (MDA-MB-231 [2]; Homo sapiens, MDA-MB-231, 24 h): 5710 ± 570 nM | activity at 5 µM (MDA-MB-231 [2]; Homo sapiens, MDA-MB-231, 5 μM): 59.5 ± 2.75% | less colonies as compared to untreated (MDA-MB-231 [3]): ~100% | colony formation (in words) (MDA-MB-231 [3]): better effects on MDA-MB-231 as compared to colchicine and paclitaxel

COc1cccc(C(=O)/C=C/c2ccc(N(CCCl)CCCl)cc2)c1 [Compound 14, (E)-3-(4-(Bis(2-chloroethyl)amino)phenyl)-1-(3-methoxyphenyl) prop-2-en-1-one]
cells arrested at the G2/M phase (cells percentage) (MDA-MB-231 [1]; 5 μM of compound 14): 47.27±7.869% | cells arrested at the G2/M phase (cells percentage) (MDA-MB-468; 5 μM of compound 14): 66.45±4.25% | E-cadherin expression (EMT markers on MCF-7): concentration dependent upregulation | pan-cadherin expression (EMT markers on MCF-7): upregulated by compound 14 in a concentration dependent manner | E-cadherin expression ([4]; 5 and 10 μM): concentration dependent upregulation | pan-cadherin expression ([4]; 5 and 10 μM): upregulated by compound 14 in a concentration dependent manner | Focal adhesion kinase (FAK) expression ([4]; MDA-MB-231): downregulated | expression of β-catenin and its phosphorylated form ([4]; cell line not named in the sentence (FIG. 3.24, FIG. 3.25)): No significant changes | EMT (in words) ([4]; summary statement): reversal of EMT | day on which the tumor in the treated group started to grow ([5]; 10 mg/kg i.p., three times per week): 24 days | clinical toxicity to treated animals (in words) [5, 7]: no notable clinical toxicity | mice health and weight (in words) [5, 7]: did not affect the mice health nor it had induced any changes to the mice weight | inhibition in tumor growth as compared to the placebo ([5]; 10 mg/kg i.p., three times per week, day 45, n=5): 46.41±0.71% and 46.41% | survival rate of the mice ([5]; during the 45 days): 100% | tumor volume ([5]; treated mice, day 45, n=5): 1350±1350 mm^3 | tumor weight ([5]; treated mice, day 45, n=5): 0.88±0.71 gm | clinical observations, tolerability (in words) [6]: did not show any changes in the mice food intake, weights, or shape | IC50 (BT-474; Homo sapiens, BT-474, 48 hours of treatment, Mean ± SEM (n = 3 × 3)): 9220 ± 780 nM | SI of HNME/BT-474 (selective index) (BT-474; ratio of LD50 on HNME-E6/E7 to IC50 on BT-474): 2.24 | LD50 HNME-E6/E7 (HNME-E6/E7): 20.67 ± 1.50 µM | IC50 (MDA-MB-231 [2]): 2860 ± 197 nM | IC50 (MDA-MB-231 [2]; Homo sapiens, MDA-MB-231, 24 h): 2860 ± 200 nM | activity at 5 µM (MDA-MB-231 [2]; Homo sapiens, MDA-MB-231, 5 μM): 32.11 ± 0.17% | inhibition at 5 µM (MDA-MB-231 [2]; Homo sapiens, MDA-MB-231, 5 μM, 24 hours, read-out: inhibition of cell migration): 67.89 ± 0.17% | less colonies as compared to untreated (MDA-MB-231 [3]): ~100% | colony formation (in words) (MDA-MB-231 [3]): completely inhibited; also recorded: better effects on MDA-MB-231 as compared to colchicine and paclitaxel | IC50 (MCF-7): 2440 ± 390 nM | IC50 (SK-BR-3): 2790 ± 450 nM
